Structures are written as SMILES. pIC50: −log10 of the molar value.

The target of the first assay is b-Raf (V600E) (Homo sapiens (Human), UniProt P15056, V600E). As to conditions: read-out: b-Raf IC-50; AlphaScreen, 60 min pre-incubation, 3 hours reaction. (In general: Bead proximity is the source of the signal in Alpha formats.)
Sequence of b-Raf (V600E) (P15056 whole entry V600E): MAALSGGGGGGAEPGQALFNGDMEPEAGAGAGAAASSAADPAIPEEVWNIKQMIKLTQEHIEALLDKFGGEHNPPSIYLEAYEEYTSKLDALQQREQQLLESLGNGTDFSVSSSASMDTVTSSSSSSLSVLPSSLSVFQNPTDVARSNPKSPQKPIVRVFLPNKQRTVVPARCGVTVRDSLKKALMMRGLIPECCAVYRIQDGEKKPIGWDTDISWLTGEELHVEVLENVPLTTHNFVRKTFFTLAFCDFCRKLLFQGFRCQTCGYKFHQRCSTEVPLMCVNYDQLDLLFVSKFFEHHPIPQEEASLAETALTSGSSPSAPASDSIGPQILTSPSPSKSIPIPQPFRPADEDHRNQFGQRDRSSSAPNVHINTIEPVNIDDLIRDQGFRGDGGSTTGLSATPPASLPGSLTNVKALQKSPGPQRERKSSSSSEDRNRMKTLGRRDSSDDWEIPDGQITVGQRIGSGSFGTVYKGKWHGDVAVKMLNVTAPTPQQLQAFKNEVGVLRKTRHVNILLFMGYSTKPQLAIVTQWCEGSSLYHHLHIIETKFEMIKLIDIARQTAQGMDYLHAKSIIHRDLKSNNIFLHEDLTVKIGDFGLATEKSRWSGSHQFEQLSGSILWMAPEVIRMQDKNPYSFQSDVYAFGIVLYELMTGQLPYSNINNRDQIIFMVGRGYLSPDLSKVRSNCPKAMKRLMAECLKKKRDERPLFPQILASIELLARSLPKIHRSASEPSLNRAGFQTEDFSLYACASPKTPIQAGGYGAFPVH
`Cc1ccc(NC(=O)c2ccnc(C(F)(F)F)c2)cc1-c1cc(N2CCOCC2)nc(OC2CNC2)n1` [Example 780, N-(3-(2-(azetidin-3-yloxy)-6-morpholinopyrimidin-4-yl)-4-methylphenyl)-2-(trifluoromethyl)isonicotinamide]: the pIC50 was 8.68.

As for `Cc1ncc(NC(=O)c2ccnc(C(C)C)c2)cc1-c1ccc(C#N)c(N2CCOCC2)c1` [Example 686, N-(5-(4-cyano-3-morpholinophenyl)-6-methylpyridin-3-yl)-2-isopropylisonicotinamide], the pIC50 was 8.77.

`Cc1ccc(NC(=O)c2ccnc(C(C)(C)C#N)c2)cc1-c1cc(N2CCOC[C@@H]2C)c(=O)n(C)n1` [Example 663, (S)-2-(2-cyanopropan-2-yl)-N-(4-methyl-3-(1-methyl-5-(3-methylmorpholino)-6-oxo-1,6-dihydropyridazin-3-yl)phenyl)isonicotinamide]: the pIC50 was 8.04. In the case of `CCNc1nc(-c2cc(NC(=O)c3cccc(C(F)(F)F)c3)cnc2C)cc(N2CCOCC2)n1` [Example 716, N-(5-(2-(ethylamino)-6-morpholinopyrimidin-4-yl)-6-methylpyridin-3-yl)-3-(trifluoromethyl)benzamide], the pIC50 was 8.89. The same measure, in the same setting: under `Cc1ccc(NC(=O)c2ccnc(C(F)F)c2)cc1-c1cc(N2CCOCC2)nc(N2C(=O)OC[C@@H]2C)n1` [Example 785, (S)-2-(difluoromethyl)-N-(4-methyl-3-(2-(4-methyl-2-oxooxazolidin-3-yl)-6-morpholinopyrimidin-4-yl)phenyl)isonicotinamide] stands 8.12. Still for that read-out and setting: under `Cc1ccc(NC(=O)c2ccnc(C(C)(C)C#N)c2)cc1-c1cc(N2CCOCC2)c(=O)n(C)n1` [Example 640, 2-(2-cyanopropan-2-yl)-N-(4-methyl-3-(1-methyl-5-morpholino-6-oxo-1,6-dihydropyridazin-3-yl)phenyl)isonicotinamide] stands 8.27; under `Cc1ncc(NC(=O)c2ccnc(C(F)F)c2)cc1-c1cc(N2CCOCC2)n2nccc2n1` [Example 803, 2-(difluoromethyl)-N-(6-methyl-5-(7-morpholinopyrazolo[1,5-a]pyrimidin-5-yl)pyridin-3-yl)isonicotinamide], 8.72; under `CCNc1nc(-c2cc(NC(=O)c3ccccc3)ccc2C)cc(N2CCOCC2)n1` [Example 695, N-(3-(2-(ethylamino)-6-morpholinopyrimidin-4-yl)-4-methylphenyl)benzamide], 8.40. On the same count and under the same terms, with `Cc1ccc(NC(=O)c2ccnc(C(C)(F)F)c2)cc1-c1cc(N2CCOCC2)nc(N2CC(O)C2)n1` [Example 772, 2-(1,1-difluoroethyl)-N-(3-(2-(3-hydroxyazetidin-1-yl)-6-morpholinopyrimidin-4-yl)-4-methylphenyl)isonicotinamide] the figure was 8.72; with `Cc1ncc(NC(=O)c2cccc(C(F)(F)F)c2)cc1-c1cc(N2CCOCC2)c(OC2CCOCC2)nn1` [Example 636, N-(6-methyl-5-(5-morpholino-6-((tetrahydro-2H-pyran-4-yl)oxy)pyridazin-3-yl)pyridin-3-yl)-3-(trifluoromethyl)benzamide], 8.89.

The same assay, now with this note: read-out: b-Raf IC-50; AlphaScreen, 60 min pre-incubation, reaction 3 hours at room temperature.
Take `Cc1ccc(NC(=O)c2cnnc(C(F)(F)F)c2)cc1-c1cc(OC2CCOCC2)nc(N2CCOCC2)c1` [Example 1155, N-(4-methyl-3-(2-morpholino-6-((tetrahydro-2H-pyran-4-yl)oxy)pyridin-4-yl)phenyl)-6-(trifluoromethyl)pyridazine-4-carboxamide]: the pIC50 is 9.18.

For `Cc1ncc(NC(=O)c2ccnc(C(C)(F)F)c2)cc1-c1cc(NCCO)nc(N2CCOCC2)c1` [Example 1041, 2-(1,1-difluoroethyl)-N-(2′-((2-hydroxyethyl)amino)-2-methyl-6′-morpholino-[3,4′-bipyridin]-5-yl)isonicotinamide], the pIC50 is 8.24. Turning to `Cc1ccc(NC(=O)c2ccnc(C(F)(F)F)c2)cc1-c1cc(NCCO)nc(N2CCOCC2)c1F` [Example 1008, N-(3-(3-fluoro-6-((2-hydroxyethyl)amino)-2-morpholinopyridin-4-yl)-4-methylphenyl)-2-(trifluoromethyl)isonicotinamide], the pIC50 was 7.88. Same read-out and setting: under `Cc1ncc(NC(=O)c2ccnc(C(C)(C)O)c2)cc1-c1cc(N2CCOCC2)nc(N2CC(O)C2)c1` [Example 1082, N-(2′-(3-hydroxyazetidin-1-yl)-2-methyl-6′-morpholino-[3,4′-bipyridin]-5-yl)-2-(2-hydroxypropan-2-yl)isonicotinamide] stands 7.24; under `Cc1ncc(NC(=O)c2cnnc(C3(C#N)CC3)c2)cc1-c1cnc(OCC(F)F)c(N2CCOCC2)c1` [Example 936, 6-(1-cyanocyclopropyl)-N-(6′-(2,2-difluoroethoxy)-2-methyl-5′-morpholino-[3,3′-bipyridin]-5-yl)pyridazine-4-carboxamide], 8.12.

Consider `Cc1ncc(NC(=O)c2cc(C3CC3)on2)cc1-c1cc(N2CCOCC2)nc(N2CC(O)C2)c1` [Example 1093, 5-cyclopropyl-N-(2′-(3-hydroxyazetidin-1-yl)-2-methyl-6′-morpholino-[3,4′-bipyridin]-5-yl)isoxazole-3-carboxamide], for which the pIC50 was 8.18. Same read-out and setting: under `Cc1ncc(NC(=O)c2ccnc(C3CC3)c2)cc1-c1cnc(OC2CCOCC2)c(N2CCOCC2)c1` [Example 941, 2-cyclopropyl-N-(2-methyl-5′-morpholino-6′-((tetrahydro-2H-pyran-4-yl)oxy)-[3,3′-bipyridin]-5-yl)isonicotinamide] stands 8.64; under `Cc1ncc(NC(=O)c2ccnc(C(C)(C)F)c2)cc1-c1cc(C2COCCO2)nc(N2CCOCC2)c1` (stereo not shown) [Example 1167, N-(2′-(1,4-dioxan-2-yl)-2-methyl-6′-morpholino-[3,4′-bipyridin]-5-yl)-2-(2-fluoropropan-2-yl)isonicotinamide], 8.12. In the case of `Cc1ncc(NC(=O)c2ccnc(C(F)F)c2)cc1-c1cc(NCCO)nc(N2CCOC[C@H]2C)c1` [Example 1141, (R)-2-(difluoromethyl)-N-(2′-((2-hydroxyethyl)amino)-2-methyl-6′-(3-methylmorpholino)-[3,4′-bipyridin]-5-yl)isonicotinamide], the pIC50 was 7.80. On to `Cc1ncc(NC(=O)c2cccc(C(F)F)c2)cc1-c1cc(NCCO)nc(N2CCOCC2)c1` [Example 1038, 3-(difluoromethyl)-N-(2′-((2-hydroxyethyl)amino)-2-methyl-6′-morpholino-[3,4′-bipyridin]-5-yl)benzamide], for which the pIC50 was 8.54. In the case of `Cc1ccc(NC(=O)c2cccc(C(F)(F)F)c2)cc1-c1nc2c(c(N3CCOCC3)n1)S(=O)(=O)CC2` [Example 857, N-(4-methyl-3-(4-morpholino-5,5-dioxido-6,7-dihydrothieno[3,2-d]pyrimidin-2-yl)phenyl)-3-(trifluoromethyl)benzamide], the pIC50 is 9.40. Turning to `Cc1ccc(NC(=O)c2cnnc(C(F)(F)F)c2)cc1-c1cc(NCCO)nc(N2CCOCC2)c1F` [Example 1013, N-(3-(3-fluoro-6-((2-hydroxyethyl)amino)-2-morpholinopyridin-4-yl)-4-methylphenyl)-6-(trifluoromethyl)pyridazine-4-carboxamide], the pIC50 was 8.01.

For `Cc1ccc(NC(=O)c2cnnc(C3CC3)c2)cc1-c1cc(OC2CCOCC2)nc(N2CCOCC2)c1` [Example 1154, 6-cyclopropyl-N-(4-methyl-3-(2-morpholino-6-((tetrahydro-2H-pyran-4-yl)oxy)pyridin-4-yl)phenyl)pyridazine-4-carboxamide], the pIC50 was 9.22.

The assay is the same for the next values; noted with them: read-out: b-Raf IC-50; Table 2; AlphaScreen, 3 hours reaction.
For `C=C(C)c1ccc(F)c(NC(=O)c2ccc(C)c(-c3cnc(OCC)c(N4CCOCC4)c3)c2)c1` [Example 256, 3-(6-ethoxy-5-morpholinopyridin-3-yl)-N-(2-fluoro-5-(prop-1-en-2-yl)phenyl)-4-methylbenzamide], the pIC50 is 8.74. The same measure, in the same setting: with `CCOc1ncc(-c2cc(C(=O)Nc3cccc(S(C)(=O)=O)c3)ccc2C)cc1N1CCOCC1` [Example 238, 3-(6-ethoxy-5-morpholinopyridin-3-yl)-4-methyl-N-(3-(methylsulfonyl)phenyl)benzamide] the figure was 9.05. Still for that read-out and setting: under `CCOc1ncc(-c2cc(NC(=O)c3cnnc(C(F)(F)F)c3)cnc2C)cc1N1CCOC[C@@H]1C` [Example 286, (S)—N-(6′-ethoxy-2-methyl-5′-(3-methylmorpholino)-[3,3′-bipyridin]-5-yl)-6-(trifluoromethyl)pyridazine-4-carboxamide] stands 6.70; under `Cc1ccc(NC(=O)c2ccnc(S(C)(=O)=O)c2)cc1-c1cnc(OC2CCOCC2)c(N2CCOCC2)c1` [Example 274, N-(4-methyl-3-(5-morpholino-6-((tetrahydro-2H-pyran-4-yl)oxy)pyridin-3-yl)phenyl)-2-(methylsulfonyl)isonicotinamide], 9.10; under `CCOc1cccc(C(=O)Nc2cnc(C)c(-c3cc(N4CCOCC4)c(=O)n(C)c3)c2)c1` [Example 397, N-(1′,2-dimethyl-5′-morpholino-6′-oxo-1′,6′-dihydro-[3,3′-bipyridin]-5-yl)-3-ethoxybenzamide], 8.00. Same read-out and setting: with `Cc1ccc(NC(=O)c2ccnc(C(C)(C)O)c2)cc1-c1cnc(OC(F)F)c(N2CCOCC2)c1` [Example 226, N-(3-(6-(difluoromethoxy)-5-morpholinopyridin-3-yl)-4-methylphenyl)-2-(2-hydroxypropan-2-yl)isonicotinamide] the figure was 8.72; with `Cc1ccc(NC(=O)c2ccnc(C(C)(C)C#N)c2)cc1-c1cnc(OC(F)F)c(N2CCOCC2)c1` [Example 223, 2-(2-cyanopropan-2-yl)-N-(3-(6-(difluoromethoxy)-5-morpholinopyridin-3-yl)-4-methylphenyl)isonicotinamide], 8.66; with `Cc1ncc(NC(=O)c2cccc(C(F)(F)F)c2)cc1-c1cnc(CS(C)(=O)=O)c(N2CCOCC2)c1` [Example 327, N-(2-methyl-6′-((methylsulfonyl)methyl)-5′-morpholino-[3,3′-bipyridin]-5-yl)-3-(trifluoromethyl)benzamide], 8.41.
